A short description of series [1]: Boiling temperature at pressure P. The note with it: Liquid, Ebulliometric method (Recirculating still).
The conditions of series [2]: 337.83 K; Liquid; Ebulliometric method (Recirculating still).

Numbers after ± are expanded uncertainties.

Regarding `CCC(C)OCOC` (configuration not stated) [2-(methoxymethoxy)butane], the “Boiling temperature at pressure P” value in series [1] (101.3 kPa) was 109.7 ± 0.87 °C; in series [1] (166.8 kPa), 129.1 ± 1.3 °C; in series [1] (217.3 kPa) it was 139.94 ± 1.2 °C; in series [1] (257 kPa), 146.93 ± 1.2 °C; in series [1] (313.1 kPa), 155.67 ± 1.3 °C; in series [1] (387.5 kPa) it was 165.49 ± 1.5 °C.

By vapor or sublimation pressure is commonly meant the equilibrium pressure above the liquid or solid. For the compound `CO` [methanol], in series [2], the “vapor or sublimation pressure” value amounted to 101.3 ± 2.3 kPa.

These data come from the NIST ThermoML archive (doi:10.1021/acs.jced.8b01247).
